Tests used:
male C57 BL6 mice = assay: Mouse head-twitch response (HTR); type: in vivo; conditions: head twitches over a 1 h period, FIG. 1 and FIG. 2
Experimental: FIG. 1 is a graph showing the effect of various doses of exemplary compound of Formula I, I-28, on head-twitch response (HTR) in male C57 BL6 mice. The mice were treated with compound I-28 ([…]) by PO route (N=6 mice/dose), and the total number of head twitches were recorded over a 1 h period. Data is expressed as mean±SEM. The induction of head twitches elicited by 5-HT2A receptor agonists is believed to represent a behavioural proxy of their psychedelic effects.
The mice were treated with compound MSP-1007 (0.03-10 mg/kg) by SC route (N=6 mice/dose), and the total number of head twitches were recorded over a 1 h period. Data is expressed as mean±SEM. […]
The effect of different doses of exemplary compound I-28 of Formula I and its active metabolite were evaluated on head-twitch response (HTR) as a behavior-based model of psychedelic activity.
Male, C57 BL/6 J mice (body weight range 20-30 g) were dosed with the appropriate dose of test article, and following a 1-minute pre-treatment time, placed in individual observation chambers. Animals were visually assessed for the incidence head twitches continuously over a 1 hr period. […] Each head twitch was individually counted by a trained observer, and the data expressed as the mean±SEM of 6-10 mice per group. […]

human 5-HT2A receptor = human 5-HT2A receptor (Homo sapiens (Human), UniProt P28223); assay: Radioligand binding assay on human 5-HT2A receptor ([3H]-ketanserin)
Experimental: i. Prepare the assay buffer following the table below;
ii. Preparation of 8 doses of reference and test compounds starting from 10 mM stock solution as requested by 5-fold serial dilutions with 100%;
iii. […] a. Add 50 μl/well of 0.5% (v/v) PEI to UniFilter-96 GF/B plates. Seal the plates and incubate at 4° C. for 3 hrs; b. After incubation, wash the plates 3 times with ice-cold wash buffer (50 mM Tris, pH7.4);
iv. Preparation of assay plates: a. Dilute cell membrane with assay buffer and add 330 μl/well to 96 round deep well plates to reach a concentration of 20 μg/well; b. […] Dilute [3H]-ketanserin with assay buffer to 5 nM (5× final concentration) and add 110 μl/well to 96 round deep well plates.
v. Centrifuge the plate at 1000 rpm for 30 secs and then agitate at 600 rpm, R.T. for 5 min.
vii. Stop the incubation by vacuum filtration onto GF/B filter plates followed by 4 times washing with ice-cold wash buffer (50 mM Tris, pH7.4).
ix. […]
For reference and exemplary test compounds of the application, the results are expressed as % Inhibition, using the normalization equation: N=100−100×(U−C2)/(C1−C2), where U is the unknown value, C1 is the average of high controls, and C2 is the average of low controls. The IC50 is determined by fitting percentage of inhibition as a function of compound concentrations with Hill equation using XLfit.

Row | SMILES | efficacy to induce head twitch (in words) (male C57 BL6 mice) | IC50 (human 5-HT2A receptor)
1 | [2H]C([2H])([2H])N(C([2H])([2H])[2H])C([2H])([2H])C([2H])([2H])c1c[nH]c2cccc(O)c12 [Compound I-45, 3-(2-(bis(methyl-d3)amino)ethyl-1,1,2,2-d4)-1H-indol-4-ol] | greater efficacy to induce head twitch than the exemplary prodrug I-28 | 
2 | [2H]C([2H])([2H])N(C([2H])([2H])[2H])C([2H])([2H])C([2H])([2H])c1c[nH]c2cccc(OC(=O)CCCCCCC/C=C\C/C=C\CCCCC)c12 [Compound I-28, 3-(2-(bis(methyl-d3)amino)ethyl-1,1,2,2-d4)-1H-indol-4-yl (9Z,12Z)-octadeca-9,12-dienoate] |  | 516 nM
